Results reported in patent US20230406833A1, “HERBICIDAL MALONAMIDES” (BASF SE, priority 2020, published 2023).

Columns and labels:
Type in all cases: in vivo
[1] = tested on: Avena fatua (AVEFA); test: greenhouse post-emergence herbicidal test; details: for pest or weed control at 250 g/ha: 0.250 kg/ha; for pest or weed control at 500 g/ha: 0.500 kg/ha
From the text: (§1) The culture containers used were plastic flowerpots containing loamy sand with approximately 3.0% of humus as the substrate. The seeds of the test plants were sown separately for each species.
(§2) For the pre-emergence treatment, the active ingredients, which had been suspended or emulsified in water, were applied directly after sowing by means of finely distributing nozzles. The containers were irrigated gently to promote germination and growth and subsequently covered with transparent plastic hoods until the test plants had rooted. This cover caused uniform germination of the test plants, unless this had been impaired by the active ingredients. For the post-emergence treatment, the test plants were first grown to a height of 3 to 15 cm, depending on the plant habit, and only then treated with the active ingredients which had been suspended or emulsified in water. For this purpose, the test plants were either shown directly and grown in the same containers, or they were first grown separately as seedlings and transplanted into the test containers a few days prior to treatment.
(§3) Depending on the species, the test plants were kept at 10-25° C. or 20-35° C., respectively. The test period extended over 2 to 4 weeks. During this time, the test plants were tended, and their response to the individual treatments was evaluated.
(§4) Evaluation was carried out using a scale from 0 to 100. 100 means no emergence of the test plants, or complete destruction of at least the aerial moieties, and 0 means no damage, or normal course of growth. A good herbicidal activity is given at values of 70 to <90 and a very good herbicidal activity is given at values of 90 to 100.
(§5) The test plants used in the greenhouse experiments were of the following species: […]

[2] = tested on: Apera spica-venti (APESV); test: greenhouse pre-emergence herbicidal test; details: scale from 0 to 100, read-out: herbicidal activity against APESV; for pest or weed control at 250 g/ha: 0.250 kg/ha; for pest or weed control at 500 g/ha: 0.500 kg/ha
From the text: as §1, §2, §3, §4, §5

[3] = tested on: Lolium multiflorum (LOLMU); test: greenhouse post-emergence herbicidal test; details: 0.125 kg/ha, scale from 0 to 100
From the text: as §1, §2, §3, §4, §5

[4] = tested on: Alopercurus myosuroides (ALOMY); test: greenhouse post-emergence herbicidal test; details: 0.125 kg/ha, scale from 0 to 100
From the text: as §1, §2, §3, §4, §5

[5] = tested on: Alopercurus myosuroides (ALOMY); test: greenhouse pre-emergence herbicidal test; details: scale from 0 to 100
From the text: as §1, §2, §3, §4, §5

[6] = tested on: Lolium multiflorum (LOLMU); test: greenhouse pre-emergence herbicidal test; details: scale from 0 to 100
From the text: as §1, §2, §3, §4, §5

[7] = tested on: Setaria faberi (SETFA); test: greenhouse pre-emergence herbicidal test; details: scale from 0 to 100
From the text: as §1, §2, §3, §4, §5

[8] = tested on: Abutilon theophrasti (ABUTH); test: greenhouse post-emergence herbicidal test; details: 1.000 kg/ha, scale from 0 to 100
From the text: as §1, §2, §3, §4, §5

[9] = tested on: Amaranthus retroflexus (AMARE); test: greenhouse post-emergence herbicidal test; details: 0.125 kg/ha, scale from 0 to 100
From the text: as §1, §2, §3, §4, §5

[10] = tested on: Setaria viridis (SETVI); test: greenhouse pre-emergence herbicidal test; details: 0.250 kg/ha, scale from 0 to 100
From the text: as §1, §2, §3, §4, §5

[11] = tested on: Echinocloa crus-galli (ECHCG); test: greenhouse post-emergence herbicidal test; details: scale from 0 to 100
From the text: as §1, §2, §3, §4, §5

[12] = tested on: Abutilon theophrasti (ABUTH); test: greenhouse pre-emergence herbicidal test; details: 0.500 kg/ha, scale from 0 to 100
From the text: as §1, §2, §3, §4, §5

[13] = tested on: Setaria viridis (SETVI); test: greenhouse post-emergence herbicidal test; details: 0.0625 kg/ha, scale from 0 to 100
From the text: as §1, §2, §3, §4, §5

[14] = tested on: Echinocloa crus-galli (ECHCG); test: greenhouse pre-emergence herbicidal test; details: 0.500 kg/ha, scale from 0 to 100
From the text: as §1, §2, §3, §4, §5

[15] = Avena fatua, scale from 0 to 100, read-out: herbicidal activity against AVEFA

## COC(=O)[C@@H]1C=C[C@H](NC(=O)C2(C(=O)Nc3cc(F)cc(F)c3)CCO2)C1 (stereo partly drawn) [Compound I1, methyl (1S,4R)-4-[[2-[(3,5-difluorophenyl)carbamoyl]oxetane-2-carbonyl]amino]cyclopent-2-ene-1-carboxylate]
[1]; [15]
  pest or weed control at 250 g/ha: 90 to 100%
[2]
  pest or weed control at 250 g/ha: 90 to 100%

## COC(=O)C[C@H](C)NC(=O)C1(C(=O)Nc2cc(Cl)cc(Cl)c2)COCO1 (stereo partly drawn) [I.22]
[3]
  herbicidal activity against LOLMU: very good (a very good herbicidal activity is given at values of 90 to 100)
[4]
  herbicidal activity against ALOMY: very good (a very good herbicidal activity is given at values of 90 to 100)
[1]; Avena fatua, 0.125 kg/ha, scale from 0 to 100, read-out: herbicidal activity against AVEFA
  pest or weed control at 125 g/ha: 90 to 100%

## CS(=O)(=O)CCOC(=O)CCCNC(=O)C1(C(=O)Nc2cc(F)cc(F)c2)CCO1 (stereo not drawn) [I.130]
[1]; 0.0625 kg/ha, scale from 0 to 100
  herbicidal activity against AVEFA: good (A good herbicidal activity is given at values of 70 to <90)

## COC(=O)[C@@H]1C=C[C@H](NC(=O)C2(C(=O)Nc3cc(Cl)cc(Cl)c3)C=CCO2)C1 (stereo partly drawn) [Compound I184, methyl (1S,4R)-4-[[5-[(3,5-dichlorophenyl)carbamoyl]-2H-furan-5-carbonyl]amino]cyclopent-2-ene-1-carboxylate]
[2]
  pest or weed control at 250 g/ha: 90 to 100%

## COC(=O)[C@@H]1C=C[C@H](NC(=O)C2(C(=O)Nc3cc(Cl)cc(Cl)c3)C=CCO2)C1 (stereo partly drawn) [Compound I24, methyl (1S,4R)-4-[[5-[(3,5-dichlorophenyl)carbamoyl]-2H-furan-5-carbonyl]amino]cyclopent-2-ene-1-carboxylate]
[1]; [15]
  pest or weed control at 250 g/ha: 90 to 100%
[5]; 0.250 kg/ha
  herbicidal activity against ALOMY: very good (a very good herbicidal activity is given at values of 90 to 100)

## CC(C)OC(=O)C1C=CC(NC(=O)C2(C(=O)Nc3cc(F)c(F)c(F)c3)CCO2)C1 (stereo not drawn) [I.133]
[6]; 0.13128 kg/ha
  herbicidal activity against LOLMU: very good (a very good herbicidal activity is given at values of 90 to 100)
[7]; 0.13128 kg/ha
  herbicidal activity against SETFA: very good (a very good herbicidal activity is given at values of 90 to 100)
[5]; 0.13128 kg/ha
  herbicidal activity against ALOMY: very good (a very good herbicidal activity is given at values of 90 to 100)

## COC(=O)C[C@H](C)NC(=O)C1(C(=O)Nc2cc(Cl)cc(Cl)c2)CCO1 (stereo partly drawn) [Compound I7, methyl (3S)-3-[[2-[(3,5-dichlorophenyl)carbamoyl]oxetane-2-carbonyl]amino]butanoate]
[1]; [15]
  pest or weed control at 500 g/ha: 90 to 100%
[2]
  pest or weed control at 500 g/ha: 90 to 100%

## COC(=O)CC(C)NC(=O)C1(C(=O)Nc2cc(Cl)cc(Cl)c2)OCCO1 (racemic) [I.19]
[8]
  herbicidal activity against ABUTH: good (A good herbicidal activity is given at values of 70 to <90)

## COC(=O)C[C@H](C)NC(=O)C1(C(=O)Nc2cc(F)cc(F)c2)CCO1 (stereo partly drawn) [Compound I2, methyl (3S)-3-[[2-[(3,5-difluorophenyl)carbamoyl]oxetane-2-carbonyl]amino]butanoate]
[2]
  pest or weed control at 500 g/ha: 90 to 100%

## COC(=O)CC(C)NC(=O)C1(C(=O)Nc2cc(Cl)cc(Cl)c2)C=CCO1 (mixture of isomers) [I.25]
[6]; 0.0625 kg/ha
  herbicidal activity against LOLMU: very good (a very good herbicidal activity is given at values of 90 to 100)
[5]; 0.0625 kg/ha
  herbicidal activity against ALOMY: good (A good herbicidal activity is given at values of 70 to <90)

## C=C1CCOC1(C(=O)Nc1cc(Cl)cc(Cl)c1)C(=O)NC(C)CC(=O)OC (stereo not drawn) [I.122]
[9]
  herbicidal activity against AMARE: good (A good herbicidal activity is given at values of 70 to <90)

## Cn1nnnc1NC(=O)C1(C(=O)Nc2cc(F)c(F)c(F)c2)CCO1 (racemic) [I.5]
[6]; 0.250 kg/ha
  herbicidal activity against LOLMU: very good (a very good herbicidal activity is given at values of 90 to 100)

## COC(=O)CC[C@H](C)NC(=O)C1(C(=O)Nc2cc(Cl)cc(Cl)c2)OCCS1 (stereo partly drawn) [I.21, methyl (4S)-4-[[2-[(3,5-dichlorophenyl)carbamoyl]-1,3-oxathiolane-2-carbonyl]amino]pentanoate]
[1]; [15]
  pest or weed control at 250 g/ha: 90 to 100%
[2]
  pest or weed control at 250 g/ha: 90 to 100%

## COC(=O)[C@@H]1C=C[C@H](NC(=O)C2(C(=O)Nc3cc(Cl)cc(Cl)c3)C=CCO2)C1 (stereo partly drawn) [Compound I183, methyl (1S,4R)-4-[[5-[(3,5-dichlorophenyl)carbamoyl]-2H-furan-5-carbonyl]amino]cyclopent-2-ene-1-carboxylate]
[2]; 0.125 kg/ha
  pest or weed control at 125 g/ha: 70 to 90%

## COC(=O)C[C@H](C)NC(=O)C1(C(=O)Nc2cc(Cl)cc(Cl)c2)CCCO1 (stereo partly drawn) [I.17, methyl (3S)-3-[[2-[(3,5-dichlorophenyl)carbamoyl]tetrahydrofuran-2-carbonyl]amino]butanoate]
[1]; [15]
  pest or weed control at 500 g/ha: 70 to 90%
[2]
  pest or weed control at 500 g/ha: 90 to 100%

## O=C([O-])C1C=CC(NC(=O)C2(C(=O)Nc3cc(Cl)cc(Cl)c3)C=CCO2)C1.[Na+] (mixture of isomers) [I.201]
[10]
  herbicidal activity against SETVI: good (A good herbicidal activity is given at values of 70 to <90)

## COC(=O)[C@@H]1C=C[C@H](NC(=O)C2(C(=O)Nc3cc(Cl)cc(Cl)c3)CCCO2)C1 (stereo partly drawn) [Compound I16, methyl (1S,4R)-4-[[2-[(3,5-dichlorophenyl)carbamoyl]tetrahydrofuran-2-carbonyl]amino]cyclopent-2-ene-1-carboxylate]
[2]
  pest or weed control at 500 g/ha: 90 to 100%

## CC(C)OC(=O)C1C=CC(NC(=O)C2(C(=O)Nc3cccc(OC(F)(F)F)c3)CCO2)C1 (stereo not drawn) [I.134]
[11]; 0.0625 kg/ha
  herbicidal activity against ECHCG: very good (a very good herbicidal activity is given at values of 90 to 100)

## COC(=O)CCCNC(=O)C1(C(=O)Nc2cc(Cl)cc(Cl)c2)COCO1 (stereo not drawn) [I.23, methyl 4-[[4-[(3,5-dichlorophenyl)carbamoyl]-1,3-dioxolane-4-carbonyl]amino]butanoate]
[1]; [15]
  pest or weed control at 500 g/ha: 70 to 90%

## COC(=O)C1C=CC(NC(=O)C2(C(=O)Nc3cc(Cl)cc(Cl)c3)OC2(C)C)C1 (mixture of isomers) [I.220]
[11]; 0.500 kg/ha
  herbicidal activity against ECHCG: good (A good herbicidal activity is given at values of 70 to <90)

## COC(=O)[C@@H]1C=C[C@H](NC(=O)C2(C(=O)Nc3cc(Cl)cc(Cl)c3)OCCS2)C1 (stereo partly drawn) [I.20, methyl (1S,4R)-4-[[2-[(3,5-dichlorophenyl)carbamoyl]-1,3-oxathiolane-2-carbonyl]amino]cyclopent-2-ene-1-carboxylate]
[1]; [15]
  pest or weed control at 250 g/ha: 90 to 100%
[2]
  pest or weed control at 250 g/ha: 70 to 90%

## COC(=O)[C@@H]1C=C[C@H](NC(=O)C2(C(=O)Nc3cc(Cl)cc(Cl)c3)CCO2)C1 (stereo partly drawn) [Compound I6, methyl (1S,4R)-4-[[2-[(3,5-dichlorophenyl)carbamoyl]oxetane-2-carbonyl]amino]cyclopent-2-ene-1-carboxylate]
[12]
  herbicidal activity against ABUTH: very good (a very good herbicidal activity is given at values of 90 to 100)
[2]
  pest or weed control at 500 g/ha: 90 to 100%

## O=C(O)CCCNC(=O)C1(C(=O)Nc2cc(F)cc(F)c2)CCO1 (stereo not drawn) [I.126]
[13]
  herbicidal activity against SETVI: good (A good herbicidal activity is given at values of 70 to <90)

## COC(=O)[C@@H]1CC[C@H](NC(=O)C2(C(=O)Nc3cc(Cl)cc(Cl)c3)CCCO2)C1 (stereo partly drawn) [Compound I15]
[7]; 0.500 kg/ha
  herbicidal activity against SETFA: good (A good herbicidal activity is given at values of 70 to <90)
[14]
  herbicidal activity against ECHCG: good (A good herbicidal activity is given at values of 70 to <90)

## COC(=O)CCCNC(=O)C1(C(=O)Nc2cc(Cl)cc(Cl)c2)CCCO1 (stereo not drawn) [Compound I18, methyl 4-[[2-[(3,5-dichlorophenyl)carbamoyl]tetrahydrofuran-2-carbonyl]amino]butanoate]
[1]; [15]
  pest or weed control at 500 g/ha: 70 to 90%
[2]
  pest or weed control at 500 g/ha: 90 to 100%
